Source: ChEMBL document CHEMBL5131570, “Discovery of Potent Small-Molecule USP8 Inhibitors for the Treatment of Breast Cancer through Regulating ERα Expression” (J Med Chem, 2022)
Active and inactive are the calls of the source. The rule behind the calls is not given here.

biological target: T1, Ubiquitin carboxyl-terminal hydrolase 7 (Homo sapiens, UniProt Q93009); assay: Inhibition of USP7 (unknown origin) […]; details: not given
T1 sequence (Q93009 whole entry): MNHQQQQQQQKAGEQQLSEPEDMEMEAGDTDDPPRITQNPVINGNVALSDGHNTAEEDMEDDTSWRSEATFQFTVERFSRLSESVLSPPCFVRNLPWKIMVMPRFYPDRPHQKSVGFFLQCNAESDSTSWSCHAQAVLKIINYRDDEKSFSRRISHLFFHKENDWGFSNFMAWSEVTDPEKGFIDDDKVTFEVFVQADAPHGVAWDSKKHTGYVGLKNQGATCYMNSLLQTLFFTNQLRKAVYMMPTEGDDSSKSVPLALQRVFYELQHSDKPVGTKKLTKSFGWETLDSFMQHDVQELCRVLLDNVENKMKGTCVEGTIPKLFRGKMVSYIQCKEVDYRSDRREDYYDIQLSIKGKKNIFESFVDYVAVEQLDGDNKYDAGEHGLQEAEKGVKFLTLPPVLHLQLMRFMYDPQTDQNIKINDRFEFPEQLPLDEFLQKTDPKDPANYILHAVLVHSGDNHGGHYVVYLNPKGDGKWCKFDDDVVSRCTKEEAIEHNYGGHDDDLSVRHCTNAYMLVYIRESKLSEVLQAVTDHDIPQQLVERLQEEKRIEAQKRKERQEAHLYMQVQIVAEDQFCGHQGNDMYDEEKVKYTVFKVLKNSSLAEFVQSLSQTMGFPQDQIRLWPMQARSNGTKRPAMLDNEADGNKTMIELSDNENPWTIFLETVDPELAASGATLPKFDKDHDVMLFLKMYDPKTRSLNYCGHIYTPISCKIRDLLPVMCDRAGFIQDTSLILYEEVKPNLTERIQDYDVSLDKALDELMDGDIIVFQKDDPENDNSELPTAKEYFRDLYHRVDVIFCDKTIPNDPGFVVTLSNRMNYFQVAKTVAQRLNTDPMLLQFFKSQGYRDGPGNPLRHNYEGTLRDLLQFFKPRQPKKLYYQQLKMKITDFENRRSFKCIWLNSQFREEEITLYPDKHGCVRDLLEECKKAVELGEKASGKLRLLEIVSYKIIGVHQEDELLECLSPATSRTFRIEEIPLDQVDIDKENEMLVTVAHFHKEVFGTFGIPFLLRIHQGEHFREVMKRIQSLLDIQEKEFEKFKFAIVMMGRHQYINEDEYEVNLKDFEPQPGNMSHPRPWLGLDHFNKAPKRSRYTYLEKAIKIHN

In the case of `COc1ccc(N2CCN(C(=S)Nc3ccc([N+](=O)[O-])cc3)CC2)c(N)c1`, the IC50 is reported as 10.5 µM.

test system: MCF7; assay: Antiproliferative activity against human MCF7 cells assessed as reduction in colony formation at 3 uM incubated for 7 days by crystal violet staining based colony formation assay; type: functional, cell-based; details: time 7.0 day

`CCO/N=C1/c2ccccc2-c2nc(C#N)c(C#N)nc21` was tested, and the Activity was “Active”.

biological target: T2, Ubiquitin carboxyl-terminal hydrolase 8 (Homo sapiens, UniProt P40818); assay: (§1) Inhibition of N-terminal His6-tagged USP8 (unknown origin) expressed in Escherichia coli BL21 (DE3) cells using ubiquitin-rhodamine -110 as substrate incubated for 15 mins followed by substrate addition measured after 1 hrs by ubiquitin-rhodamine-110 based fluorometric assay; details: not given
T2 sequence (P40818 whole entry): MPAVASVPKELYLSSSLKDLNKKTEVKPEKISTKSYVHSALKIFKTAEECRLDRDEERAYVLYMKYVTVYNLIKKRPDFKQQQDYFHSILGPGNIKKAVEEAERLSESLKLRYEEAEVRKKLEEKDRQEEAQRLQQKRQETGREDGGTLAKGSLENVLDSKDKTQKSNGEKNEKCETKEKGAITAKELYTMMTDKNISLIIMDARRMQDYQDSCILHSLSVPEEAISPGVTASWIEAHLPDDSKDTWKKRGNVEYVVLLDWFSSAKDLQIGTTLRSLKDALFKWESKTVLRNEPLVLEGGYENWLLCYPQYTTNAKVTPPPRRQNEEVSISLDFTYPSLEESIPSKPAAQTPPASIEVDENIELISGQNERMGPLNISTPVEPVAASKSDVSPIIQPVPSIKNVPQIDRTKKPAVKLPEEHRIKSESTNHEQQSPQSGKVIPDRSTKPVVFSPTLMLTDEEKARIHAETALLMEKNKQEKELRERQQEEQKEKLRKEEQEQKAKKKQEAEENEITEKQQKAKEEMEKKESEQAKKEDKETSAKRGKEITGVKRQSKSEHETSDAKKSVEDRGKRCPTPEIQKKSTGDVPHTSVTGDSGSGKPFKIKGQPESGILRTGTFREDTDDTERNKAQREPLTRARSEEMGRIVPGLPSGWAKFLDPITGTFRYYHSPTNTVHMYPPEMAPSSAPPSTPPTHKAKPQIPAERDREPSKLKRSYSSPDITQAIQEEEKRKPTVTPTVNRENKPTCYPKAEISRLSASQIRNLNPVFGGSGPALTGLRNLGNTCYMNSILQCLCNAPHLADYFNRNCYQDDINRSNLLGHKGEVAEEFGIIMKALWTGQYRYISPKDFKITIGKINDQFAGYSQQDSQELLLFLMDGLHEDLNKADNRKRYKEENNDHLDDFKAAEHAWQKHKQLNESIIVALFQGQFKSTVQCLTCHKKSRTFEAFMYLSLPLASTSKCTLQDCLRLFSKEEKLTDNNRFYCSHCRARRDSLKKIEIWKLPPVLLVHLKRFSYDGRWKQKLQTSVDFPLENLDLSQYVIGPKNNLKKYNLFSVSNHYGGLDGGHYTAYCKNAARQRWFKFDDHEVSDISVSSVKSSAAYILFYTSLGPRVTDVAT

In the case of `COc1ccc(N2CCN(C(=S)Nc3ccc([N+](=O)[O-])cc3)CC2)c(N)c1`, the IC50 is reported as 2.6 µM.

biological target: T1, Ubiquitin carboxyl-terminal hydrolase 7; assay: Inhibition of human full length USP7 overexpressed in baculovirus-infected insect cells using ubiquitin-C-terminal 7-amido-4-methylcoumarin as substrate by fluorescence spectroscopy; details: not given

For `N#Cc1cc2c(cc1C#N)-c1ccccc1C2=O`, the IC50 was 3.5 µM.

biological target: T2, Ubiquitin carboxyl-terminal hydrolase 8; assay: Binding affinity to N-terminal His6-tagged USP8 catalytic domain (734 to 1110 residues) (unknown origin) expressed in Escherichia coli BL21 (DE3) cells by surface plasmon resonance method; details: not given

`COc1c(O)cc(O)c2c(=O)cc(-c3ccc(N4CCCNCC4)cc3)oc12` showed a Kd of 43.6 µM.

biological target: NAD(P)H dehydrogenase [quinone] 1 (Homo sapiens) (UniProt P15559); assay: Substrate activity at NQO1 (unknown origin) assessed as reduction in NADPH level measured per umol of NQO1 at 20 uM in presence of NADPH by absorbance based analysis; details: not given
Sequence (P15559 whole entry): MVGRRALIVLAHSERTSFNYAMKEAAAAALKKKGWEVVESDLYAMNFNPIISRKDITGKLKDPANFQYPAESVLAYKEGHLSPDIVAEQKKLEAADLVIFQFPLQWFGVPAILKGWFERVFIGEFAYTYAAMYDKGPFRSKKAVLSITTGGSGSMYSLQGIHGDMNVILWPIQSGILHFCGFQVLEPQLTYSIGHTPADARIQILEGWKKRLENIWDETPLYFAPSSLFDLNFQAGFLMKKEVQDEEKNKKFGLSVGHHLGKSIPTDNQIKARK

Work on `CCO/N=C1/c2ccccc2-c2nc(C#N)c(C#N)nc21` yielded an Activity of 1300 µmol/min.

biological target: T2, Ubiquitin carboxyl-terminal hydrolase 8; assay: Inhibition of human full length USP8 overexpressed in baculovirus-infected insect cells using ubiquitin-C-terminal 7-amido-4-methylcoumarin as substrate by fluorescence spectroscopy; details: not given

Compared with `N#Cc1nc2c(nc1C#N)-c1ccccc1/C2=N\OCc1ccccc1`, `C=CCO/N=C1\c2ccccc2-c2nc(C#N)c(C#N)nc21` is 1.5-fold lower in IC50: 0.85 µM for the first, 0.56 µM for the second.

For `N#Cc1cc2c(cc1C#N)-c1ccccc1C2=O`, the IC50 was 0.29 µM.

biological target: T2, Ubiquitin carboxyl-terminal hydrolase 8; assay: as §1, with “origin) catalytic domain (734 to 1110 residues)” for “origin)”, “cells assessed as deubiquitinating activity” for “cells”, “30” for “15”, “30 mins” for “1 hrs”; details: not given

`CC(C)Oc1c(O)cc(O)c2c(=O)cc(-c3ccc(N4CCCNCC4)cc3)oc12` and `COc1c(O)cc(O)c2c(=O)cc(-c3ccc(N4CCCNCC4)cc3)oc12` are within 1.5-fold of each other in IC50: 24.5 µM for the first, 31.6 µM for the second.

`COc1c(O)cc(O)c2c(=O)cc(-c3ccc(N4CCCC4)cc3)oc12` and `COc1c(O)cc(O)c2c(=O)cc(-c3ccc(N4CCOCC4)cc3)oc12` are within 1.5-fold of each other in IC50: 16.2 µM for the first, 18.3 µM for the second.

Compared with `Cc1n[nH]c(C)c1Oc1c(O)cc(O)c2c(=O)cc(-c3ccc(N4CCN(c5ccccc5)CC4)cc3)oc12`, `CCN1CCN(c2ccc(-c3cc(=O)c4c(O)cc(O)c(Oc5c(C)n[nH]c5C)c4o3)cc2)CC1` is 4.4-fold higher in IC50: 3.5 µM for the first, 15.5 µM for the second. The first is the more potent here.

`Cc1n[nH]c(C)c1Oc1c(O)cc(O)c2c(=O)cc(-c3ccc(N4CCCNCC4)cc3)oc12` and `Cc1n[nH]c(C)c1Oc1c(O)cc(O)c2c(=O)cc(-c3ccc(N4CCN(C(C)C)CC4)cc3)oc12` are within 1.5-fold of each other in IC50: 17.6 µM for the first, 16.3 µM for the second.

Going from `COc1c(O)cc(O)c2c(=O)cc(-c3ccc(N4CCN(C=O)CC4)cc3)oc12` to `COc1c(O)cc(O)c2c(=O)cc(-c3ccc(N4CCN(C)CC4)cc3)oc12`, the IC50 rises from 2.2 µM to 16.5 µM (7.5-fold).

Compared with `COc1c(O)cc(O)c2c(=O)cc(-c3ccc(N4CCN(CCO)CC4)cc3)oc12`, `Cc1n[nH]c(C)c1Oc1c(O)cc(O)c2c(=O)cc(-c3ccc(N4CCN(CCO)CC4)cc3)oc12` is 1.9-fold lower in IC50: 45.2 µM for the first, 23.5 µM for the second.

`COc1c(O)cc(O)c2c(=O)cc(-c3ccc(N(CCO)CCO)cc3)oc12` and `COc1c(O)cc(O)c2c(=O)cc(-c3ccc(N4CCC(O)CC4)cc3)oc12` are within 1.5-fold of each other in IC50: 43.7 µM for the first, 36 µM for the second.

First: Cc1n[nH]c(C)c1Oc1c(O)cc(O)c2c(=O)cc(-c3ccc(N4CCN(C(=O)c5ccco5)CC4)cc3)oc12
Second: O=c1cc(-c2ccc(N3CCCNCC3)cc2)oc2c(OC3CCCCC3)c(O)cc(O)c12
The IC50 of the first is 3.2-fold lower: 5.1 µM for the first, 16.2 µM for the second.
